Usually IC50 stands for the concentration that inhibits the measured activity by half.

For one assay, the system named is OCI-AML2. Kind of assay: XTT cell viability assay, OCI-AML2 AML cells. The conditions noted are these: Homo sapiens, OCI-AML2, 48 h, SD 10%, mean of three experiments, read-out: IC50 L2 (AML). The format is cell-based, human. The procedure, abridged:
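XTT reagent was added to each well; metabolically active cells reduce the yellow tetrazolium to an orange formazan dye, read at 490 nm as a measure of viable cell number. Quadruplicate wells per condition.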

Assay [1] has as its system primary normal kidney cells (15S). Kind of assay: Cell viability, primary normal kidney cells. The format is cell-based. As for the experimental part: Fifty microliters of sodium 3′-[1-phenylaminocarbonyl)-3,4-tetrazolium]-bis(4-methoxy-6-nitro) benzene sulfonic acid hydrate (XTT) reagent was added to each well. The assay is based on the cleavage of the yellow tetrazolium salt XTT to form an orange formazan dye by metabolically active cells. This bio-reduction occurs in viable cells only and is related to NAD(P)H production through glycolysis. Therefore, the amount of formazan dye measured at 490 nm directly correlated with the number of metabolically active cells reflecting cell proliferation and viability. Each assay was performed in quadruplicate.
For the experiments with C29, we confirmed all the results by evaluating the cell viability. Cell viability and cell death was assessed using the ADAM-MC apparatus (NanoEnTek, Guro-gu, Seoul, Korea) based on fluorescent propidium iodide staining according to the manufacturer's instructions.
To determine the selectivity of the activity of the substances tested, the selectivity index (SI) was calculated according to the equation previously described where SI = IC50 of a compound in a normal cell line/IC50 of the same compound in cancer cell line. The IC50 is the concentration required to kill 50% of the cell population.

In assay [2] the test system is ERK/MAP Kinase and PI3K/AKT signaling pathways. Kind of assay: p-ERK and p-AKT immunoblotting in RCC and HNSCC cells. The format is cell-based, human. The conditions noted are these: naive and resistant RCC and HNSCC cells, 2.5 µM, 1 h to 48 h. As for the experimental part:
Cells were lysed in buffer containing 3% SDS, 10% glycerol and 0.825 mM Na2HPO4. 30 to 50 μg of proteins separated on 10% SDS-PAGE, transferred onto a PVDF membrane and then exposed to the appropriate antibodies. Proteins were visualized with the ECL system using horseradish peroxidase-conjugated anti-rabbit or anti-mouse antibodies.

As for `O=C(Nc1cccc(Cl)c1)Nc1nc2ccc([N+](=O)[O-])cc2s1` [C29], the IC50 in the assay with OCI-AML2 stood at 5 µM; in assay [1] (CXCR1-/CXCR2-, normal primary kidney cells), 12.5 µM. Also, in assay [1] (SI = IC50 in normal cell line (15S)/IC50 in this cell line, reference), the “Selectivity index 15S” value is recorded as 1. The “effect on primary normal kidney cells (15S)” value in assay [1] (even at a higher concentration (5 µmol/L)) is reported as “no effect”. Besides, in assay [2], the “ERK/MAP Kinase and PI3K/AKT signaling pathways (p-ERK, p-AKT)” value is reported as “inhibited”.

The values are drawn from publication PMC6691587, “New CXCR1/CXCR2 inhibitors represent an effective treatment for kidney or head and neck cancers sensitive or refractory to reference treatments” (Theranostics, 2019).
